Measurements as given in US11001564B2, “Substituted chromane-8-carboxamide compounds and analogues thereof, and methods using same” (priority 2016, dated 2021).
Counter-ions that a name gives are not always drawn.

System: HBV rcDNA in HepDE19 cells
Experiment: HepDE19 assay with bDNA quantitation of HBV rcDNA
Type: cell-based, hepatitis B virus (HBV)
Conditions: Hepatitis B virus, HepDE19, 168 h, HepDE19 cells, 7 day incubation, rcDNA by Quantigene 2.0 bDNA assay; read-out: DE-19 bDNA EC50
How it was run: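 HepG2-derived HepDE19 cells, switched to Tet-free medium, were exposed 7 days at 37 °C to compound (8-point ½-log series from 25 μM, 0.5% DMSO). HBV rcDNA measured by bDNA assay with HBV-specific probes; EC50/EC90 by 4-parameter fit. CC50 from CellTiter-Glo ATP on replicate plates after 4 days.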

`O=C(N[C@H]1CCOc2c(C(=O)Nc3ccc(F)c(F)c3)cccc21)OCc1ccon1` [Compound 103, Isoxazol-3-ylmethyl (S)-(8-((3,4-difluorophenyl)carbamoyl)chroman-4-yl)carbamate] was tested. Which EC50 did it give?
The EC50 was 2.1 µM.

For `O=C(N[C@H]1CCOc2c(C(=O)Nc3ccc(F)c(Cl)c3)ccc(F)c21)OCc1ccccn1` [Compound 105, Pyridin-2-ylmethyl (S)-(8-((3-chloro-4-fluorophenyl)carbamoyl)-5-fluorochroman-4-yl)carbamate], which EC50 is on record?
Its EC50 is 0.37 µM.

With `O=C(N[C@@H]1CCOc2c(C(=O)Nc3ccc(F)c(Cl)c3)ccc(F)c21)OCc1ccccn1` [Compound 106, pyridin-2-ylmethyl (R)-(8-((3-chloro-4-fluorophenyl)carbamoyl)-5-fluorochroman-4-yl)carbamate] as the molecule, how does the EC50 read?
The EC50 was 20 µM.

How did the EC50 turn out when `O=C(N[C@H]1CCOc2c(C(=O)Nc3ccc(F)c(F)c3)cccc21)OCC1CCNCC1` [Compound 107, piperidin-4-ylmethyl (S)-(8-((3,4-difluorophenyl)carbamoyl)chroman-4-yl)carbamate] was run?
Its EC50 is 21 µM.

Which EC50 does the source give for `O=C1CCOc2c1c(F)cc(F)c2C(=O)Nc1ccc(F)c(F)c1` [Compound 110, N-(3,4-difluorophenyl)-5,7-difluoro-4-oxochromane-8-carboxamide] here?
The EC50 was 1.6 µM.

How did the EC50 turn out when `O=C(N[C@H]1CCOc2c(C(=O)Nc3ccc(F)c(Cl)c3)cccc21)OCc1cnccn1` [Compound 112, Pyrazin-2-ylmethyl (S)-(8-((3-chloro-4-fluorophenyl)carbamoyl)chroman-4-yl)carbamate] was run?
The EC50 was 0.77 µM.

`Cc1cc(NC(=O)c2ccc(F)c3c2OCC[C@@H]3NC(=O)OCc2ccccn2)ccc1F` [Compound 113, Pyridin-2-ylmethyl (S)-(5-fluoro-8-((4-fluoro-3-methylphenyl)carbamoyl)chroman-4-yl)carbamate] was tested. Which EC50 did it give?
The EC50 was 0.56 µM.

For `Cc1cc(NC(=O)c2ccc(F)c3c2OCC[C@@H]3NC(=O)OCc2cnccn2)ccc1F` [Compound 114, Pyrazin-2-ylmethyl (S)-(5-fluoro-8-((4-fluoro-3-methylphenyl)carbamoyl)chroman-4-yl)carbamate], which EC50 is on record?
The EC50 was 0.5 µM.

Which EC50 does the source give for `O=C1CC[C@@H](COC(=O)N[C@H]2CCOc3c(C(=O)Nc4ccc(F)c(F)c4)cccc32)N1` [Compound 118, ((S)-5-Oxopyrrolidin-2-yl)methyl ((S)-8-((3,4-difluorophenyl)carbamoyl)chroman-4-yl)carbamate] here?
Its EC50 is 3.6 µM.

How did the EC50 turn out when `O=C1CC[C@H](COC(=O)N[C@H]2CCOc3c(C(=O)Nc4ccc(F)c(F)c4)cccc32)N1` [Compound 119, ((R)-5-Oxopyrrolidin-2-yl)methyl ((S)-8-((3,4-difluorophenyl)carbamoyl)chroman-4-yl)carbamate] was run?
Its EC50 is 8.7 µM.

How did the EC50 turn out when `Cc1cc(NC(=O)c2ccc(F)c3c2OCC[C@@H]3NC(=O)OCc2ncccn2)ccc1F` [Compound 120, Pyrimidin-2-ylmethyl (S)-(5-fluoro-8-((4-fluoro-3-methylphenyl)carbamoyl)chroman-4-yl)carbamate] was run?
Its EC50 is 0.54 µM.

Which EC50 does the source give for `CC(=O)N[C@H]1CCOc2c(C(=O)Nc3ccc(F)c(C)c3)ccc(F)c21` [Compound 121, (4S)-4-Acetamido-5-fluoro-N-(4-fluoro-3-methylphenyl)-3,4-dihydro-2H-1-benzopyran-8-carboxamide] here?
The EC50 was 0.62 µM.

`O=C(N[C@H]1CCOc2c(C(=O)Nc3ccc(F)c(F)c3)c(F)cc(F)c21)OCc1ccccn1` [Compound 124, pyridin-2-ylmethyl (S)-(8-((3,4-difluorophenyl)carbamoyl)-5,7-difluorochroman-4-yl)carbamate] was tested. Which EC50 did it give?
The EC50 was 25 µM.

With `CN1CCC(COC(=O)N[C@H]2CCOc3c(C(=O)Nc4ccc(F)c(F)c4)cccc32)C1` (stereo partly drawn) [Compound 127, (1-methylpyrrolidin-3-yl)methyl ((S)-8-((3,4-difluorophenyl)carbamoyl)chroman-4-yl)carbamate] as the molecule, how does the EC50 read?
The EC50 was 24 µM.

Which EC50 does the source give for `COC(=O)N[C@H]1CCOc2c(C(=O)Nc3ccc(F)c(OC)c3)ccc(F)c21` [Compound 128, Methyl (S)-(5-fluoro-8-((4-fluoro-3-methoxyphenyl)carbamoyl)chroman-4-yl)carbamate] here?
The EC50 was 1.2 µM.

For `COCC(=O)N[C@H]1CCOc2c(C(=O)Nc3ccc(F)c(C)c3)ccc(F)c21` [Compound 129, (4S)-5-Fluoro-N-(4-fluoro-3-methylphenyl)-4-(2-methoxyacetamido)-3,4-dihydro-2H-1-benzopyran-8-carboxamide], which EC50 is on record?
Its EC50 is 2.5 µM.

With `Cc1cc(NC(=O)c2ccc(F)c3c2OCC[C@@H]3NC(=O)OCc2ccncn2)ccc1F` [Compound 130, Pyrimidin-4-ylmethyl (S)-(5-fluoro-8-((4-fluoro-3-methylphenyl)carbamoyl)chroman-4-yl)carbamate] as the molecule, how does the EC50 read?
The EC50 was 0.62 µM.

For `CN(C)C(=O)CC1CCOc2c(C(=O)Nc3ccc(F)c(F)c3)cccc21` (stereo not drawn) [Compound 133, N-(3,4-difluorophenyl)-4-(2-(dimethylamino)-2-oxoethyl) chromane-8-carboxamide], which EC50 is on record?
The EC50 was 14 µM.

Which EC50 does the source give for `O=C(N[C@H]1CCOc2c(C(=O)Nc3ccc(F)c(F)c3)ccc(Cl)c21)OCc1ccccn1` [Compound 134, Pyridin-2-ylmethyl (S)-(5-chloro-8-((3,4-difluorophenyl)carbamoyl)chroman-4-yl)carbamate] here?
The EC50 was 1.3 µM.

For `COC(=O)N[C@H]1CCOc2c(C(=O)Nc3ccnc(C)c3)ccc(F)c21` [Compound 135, methyl (S)-(5-fluoro-8-((2-methylpyridin-4-yl)carbamoyl)chroman-4-yl)carbamate], which EC50 is on record?
The EC50 was 9.7 µM.

Which EC50 does the source give for `Cc1cc(NC(=O)c2ccc(F)c3c2OCC[C@@H]3NC(=O)OC[C@H]2CCC(=O)N2)ccc1F` [Compound 136, ((R)-5-Oxopyrrolidin-2-yl)methyl ((S)-5-fluoro-8-((4-fluoro-3-methylphenyl)carbamoyl)chroman-4-yl)carbamate] here?
The EC50 was 1.2 µM.

How did the EC50 turn out when `Cc1cc(NC(=O)c2ccc(F)c3c2OCC[C@@H]3NC(=O)OC[C@@H]2CCC(=O)N2)ccc1F` [Compound 137, ((S)-5-Oxopyrrolidin-2-yl)methyl ((S)-5-fluoro-8-((4-fluoro-3-methylphenyl)carbamoyl)chroman-4-yl)carbamate] was run?
Its EC50 is 0.9 µM.

How did the EC50 turn out when `Cc1cc(NC(=O)c2ccc(F)c3c2OCC[C@@H]3NC(=O)OCCc2ccccn2)ccc1F` [Compound 138, 2-(Pyridin-2-yl)ethyl (S)-(5-fluoro-8-((4-fluoro-3-methylphenyl)carbamoyl)chroman-4-yl)carbamate] was run?
Its EC50 is 0.6 µM.

`Cc1cc(NC(=O)c2ccc(F)c3c2OCC[C@@H]3NC(=O)OC[C@H]2CCCC(=O)N2)ccc1F` [Compound 142, ((R)-6-Oxopiperidin-2-yl)methyl ((S)-5-fluoro-8-((4-fluoro-3-methylphenyl)carbamoyl)chroman-4-yl)carbamate] was tested. Which EC50 did it give?
Its EC50 is 0.73 µM.

With `Cc1cc(NC(=O)c2ccc(F)c3c2OCC[C@@H]3NC(=O)OCCN2CCCC2=O)ccc1F` [Compound 143, 2-(2-Oxopyrrolidin-1-yl)ethyl (S)-(5-fluoro-8-((4-fluoro-3-methylphenyl)carbamoyl)chroman-4-yl)carbamate] as the molecule, how does the EC50 read?
Its EC50 is 1.2 µM.

With `CC(=O)NCCOC(=O)N[C@H]1CCOc2c(C(=O)Nc3ccc(F)c(C)c3)ccc(F)c21` [Compound 146, 2-Acetamidoethyl (S)-(5-fluoro-8-((4-fluoro-3-methylphenyl)carbamoyl)chroman-4-yl)carbamate] as the molecule, how does the EC50 read?
Its EC50 is 0.61 µM.

Same assay, conditions: Hepatitis B virus, HepDE19, 168 h, read-out: DE-19 bDNA EC50, HepDE19 cells, 7 day incubation, rcDNA by Quantigene 2.0 bDNA assay

With `COc1ccc(COC(=O)N[C@H]2CCOc3c(C(=O)Nc4ccc(F)c(F)c4)cccc32)nc1` [Compound 102, (5-Methoxypyridin-2-yl)methyl (S)-(8-((3,4-difluorophenyl)carbamoyl)chroman-4-yl)carbamate hydrochloride] as the molecule, how does the EC50 read?
Its EC50 is 2.5 µM.

How did the EC50 turn out when `CNC(=O)N[C@H]1CCOc2c(C(=O)Nc3ccc(F)c(Cl)c3)ccc(F)c21` [Compound 104, (S)—N-(3-Chloro-4-fluorophenyl)-5-fluoro-4-(3-methylureido)chromane-8-carboxamide] was run?
Its EC50 is 0.4 µM.

With `COc1cccc(COC(=O)N[C@H]2CCOc3c(C(=O)Nc4ccc(F)c(F)c4)cccc32)n1` [Compound 111, (6-Methoxypyridin-2-yl)methyl (S)-(8-((3,4-difluorophenyl)carbamoyl)chroman-4-yl)carbamate hydrochloride] as the molecule, how does the EC50 read?
Its EC50 is 2.7 µM.

With `COC(=O)N[C@H]1CCOc2c(C(=O)Nc3ccc(F)c(F)c3)c(F)cc(F)c21` [Compound 115, Methyl (S)-(8-((3,4-difluorophenyl)carbamoyl)-5,7-difluorochroman-4-yl)carbamate] as the molecule, how does the EC50 read?
Its EC50 is 0.8 µM.

`CNC(=O)N[C@H]1CCOc2c(C(=O)Nc3ccc(F)c(F)c3)c(F)cc(F)c21` [Compound 116, (S)—N-(3,4-Difluorophenyl)-5,7-difluoro-4-(3-methylureido)chromane-8-carboxamide] was tested. Which EC50 did it give?
The EC50 was 1.8 µM.

How did the EC50 turn out when `COC(=O)N[C@H]1CCOc2c(C(=O)Nc3ccc(F)c(C)c3)ccc(F)c21` [Compound 117, Methyl (5-fluoro-8-((4-fluoro-3-methylphenyl)carbamoyl)chroman-4-yl)carbamate] was run?
The EC50 was 0.22 µM.

`CNC(=O)N[C@H]1CCOc2c(C(=O)Nc3ccc(F)c(C)c3)ccc(F)c21` [Compound 122, (S)-5-fluoro-N-(4-fluoro-3-methylphenyl)-4-(3-methylureido)chromane-8-carboxamide] was tested. Which EC50 did it give?
The EC50 was 0.32 µM.

With `O=C(N[C@H]1CCOc2c(C(=O)Nc3ccc(F)c(F)c3)cccc21)OCc1ncccc1Cl` [Compound 123, (3-Chloropyridin-2-yl)methyl (S)-(8-((3,4-difluorophenyl)carbamoyl)chroman-4-yl)carbamate hydrochloride] as the molecule, how does the EC50 read?
The EC50 was 8.8 µM.

How did the EC50 turn out when `COC(=O)N[C@H]1CCOc2c(C(=O)Nc3ccc(F)c(F)c3)ccc(Cl)c21` [Compound 125, Methyl (S)-(5-chloro-8-((3,4-difluorophenyl)carbamoyl)chroman-4-yl)carbamate] was run?
The EC50 was 2.3 µM.

Which EC50 does the source give for `CNC(=O)N[C@H]1CCOc2c(C(=O)Nc3ccc(F)c(F)c3)ccc(Cl)c21` [Compound 126, (S)-5-chloro-N-(3,4-difluorophenyl)-4-(3-methylureido)chromane-8-carboxamide] here?
Its EC50 is 0.74 µM.
